Two compounds from US20230192650A1, “NOVEL ACID SECRETION INHIBITOR AND USE THEREOF” (Ildong Pharmaceutical Co., Ltd., priority 2020, published 2023) can be followed below.

A short description of data set [1]: Intragastric distribution test in rats. Format: in vivo. The following applies: rat, oral 4 mg/kg, 1, 6, 12 and 24 hours. The procedure:
After oral administration of the Example compound in normal rats, the intragastric distribution by time was measured as follows. The prepared compound was dissolved in distilled water containing 0.5% methylcellulose to 0.2 mg/mL, and then orally administered at a dosage of 4 mg/kg. Rats were sacrificed at 1 hour, 6 hours, 12 hours, and 24 hours after administration. Then, blood was exsanguinated through the heart and perfused with physiological saline, the gastric tissue was enucleated, weighed, and stored at −80° C. until the point of analysis. PBS buffer was added so that the ratio of gastric tissue weight to PBS buffer was 1:4, and the compound in gastric tissue was extracted using a homogenizer. The supernatant of the extract was taken and was subjected to protein precipitation using acetonitrile, and then an amount of the Example compound was measured using LC-MS/MS.

The target in a further data set is human SSTR4 (Homo sapiens, UniProt P31391). Nature of the data set: SSTR4 agonist effect (cell-based cAMP functional assay, HTRF). The following applies: CHO cells stably expressing human SSTR4, 37° C. 30 minutes, vs sst-14 10 nM. As for the experimental part:
The agonism effect on SSTR4 was confirmed by cell-based cAMP functional assay. CHO cells in which human SSTR4 was stably expressed were treated with test substances for each concentration and reacted at 37° C. for 30 minutes, and an amount of the produced cAMP was measured by the HTRF detection method. The % response compared to the reference control agonist (sst-14, 10 nM) was calculated, and the EC50 was calculated through the concentration-response curve.
Background: Time-resolved FRET reads energy transfer from a long-lived donor to a nearby acceptor.

Data set [2] concerns the target T1, proton pump (H+/K+-ATPase) (Sus scrofa, UniProt P19156).
T1 construct: Gastric vesicles isolated from pig stomach were prepared according to the document; from tissue; host or cells: pig stomach (gastric vesicles)
Nature of the data set: Reversibility of proton pump inhibition by jump dilution method. Format: biochemical, pig. The following applies: 0.2 μM compound. The procedure: In addition, in order to confirm the reversibility of the inhibition ability on the proton pump (H^+/K^+-ATPase) of the prepared compound, an experiment was performed by the jump dilution method. 6.25 μg of gastric vesicles isolated from pig stomach and 0.2 μM of each compound were pre-incubated for 120 minutes, and then the enzyme activity before dilution and the enzyme activity after 50-fold dilution were compared for each reaction time, and the reversibility was evaluated. In both Example 1 and Example 3, the inhibition ability of 50% or more was confirmed after 20 minutes of the reaction. On the other hand, when the reaction was performed for 60 minutes after the 50-fold dilution, in both Examples 1 and 3, the enzyme activity was recovered to 90% or more, and reversible results were confirmed.

A short description of data set [3]: Pharmacokinetic test in rats. The following applies: blood, rat; for bioavailability: oral 10 mg/kg vs intravenous 5 mg/kg, read-out: F (%) bioavailability; for AUC(0-inf): single oral dose 10 mg/kg. Format: in vivo. As for the experimental part:
The Example compound was dissolved in PBS containing 5% DMSO and 20% hydroxypropyl (HP) beta cyclodextrin, and administered intravenously to rats at a dose of 5 mg/kg, and the Example compound was suspended in distilled water containing 0.5% methylcellulose, and orally administered to rats at a dose of 10 mg/kg. The Example compound was dissolved in PBS containing 5% DMSO and 20% hydroxypropyl (HP) beta cyclodextrin, and administered intravenously to beagle dogs at a dose of 5 mg/kg, and the Example compound was suspended in distilled water containing 0.5% methylcellulose, and orally administered to beagle dogs at a dose of 10 mg/kg. Blood samples were collected at scheduled time points after the single intravenous and oral administration of the Example compound to normal rats and beagle dogs. Acetonitrile containing an internal standard material was added to the collected blood sample for protein precipitation. The sample extracted through protein precipitation was centrifuged, and then the supernatant was injected into LC-MS/MS to be subjected to quantitative analysis of the blood concentration of the Example compound. The AUC for each administration route was calculated based on the blood concentration-time profile obtained as a result above, and based on this, the bioavailability (F) upon oral administration was calculated.

Data set [4] deals with T1, proton pump (H+/K+-ATPase). Nature of the data set: Inhibitory activity on proton pump (H+/K+-ATPase), malachite green assay. Format: biochemical. The conditions noted are these: pig gastric vesicles, pH 6.5. The procedure: The proton pump (H+/K+-ATPase) inhibitory activity of the prepared compound was measured as follows. Gastric vesicles isolated from pig stomach were prepared according to the document (see Methods Mol Biol. 2016; 1377:19-27). The protein contents of the gastric vesicles were quantified with a Bicinchoninic Acid (BCA) kit (Sigma Aldrich, BCA1). To each well of a 96-well plate, 70 μl of 50 mM Tris-HEPES buffer (pH 6.5) containing 125 ng of vesicles, DMSO or a substance for each concentration (final DMSO concentration of 1%), 5 mM MgCl2, and 10 mM KCl was added and pre-incubated at 37° C. for 30 minutes. Then, 10 μl of 2 mM ATP was added to each well, followed by enzymatic reaction at 37° C. for 40 minutes. The reaction was stopped by adding 20 μl of malachite green reagent (Sigma Aldrich, MAK307) and the resulting mixture was allowed to stand at room temperature for 30 minutes. By measuring the absorbance at 620 nm using a Microplate Reader (Biotek, Synergy H4), an amount of inorganic phosphorus released from ATP degradation was measured and the enzyme activity was measured. The absorbance of the enzyme-reacted sample without adding KCl was measured, and the measurement value was subtracted from all the above measurements. Assuming that the group treated with 1% DMSO (DMSO control group) was 100% H^+/K^+-ATPase enzyme activity, and that the group without KCl (KCl control group) was 0% H^+/K^+-ATPase enzyme activity, % inhibition was calculated as in the following Equation 1:
% inhibition=[1−(ODtreatment group−ODKCl control group)/(ODDMSO control group−ODKCl control group))]*100. [Equation 1]
IC50 was obtained by nonlinear regression analysis of GraphPad Prism7 program using % inhibition values for each concentration, and results thereof are shown in Table 2 below.

Setting [5] is: after 20 minutes of the reaction, read-out: inhibition ability.
Where [6] appears, read: reaction time 20 min, after 50-fold dilution, read-out: % Inhibition.
Where [7] appears, read: reaction time 20 min, before dilution, read-out: % Inhibition.
The mark [8] stands for this setting: reaction time 60 min, after 50-fold dilution, read-out: % Inhibition.
[9] abbreviates: reaction time 60 min, before dilution, read-out: % Inhibition.
Setting [10] is: reaction time 120 min, after 50-fold dilution, read-out: % Inhibition.
The mark [11] stands for this setting: reaction time 120 min, before dilution, read-out: % Inhibition.

pEC50, pIC50: −log10 of the molar value. Read-outs that look alike come from different tables or passages of the source. Some results are limits rather than exact numbers.

T1 sequence (P19156 2-1034 limits assumed): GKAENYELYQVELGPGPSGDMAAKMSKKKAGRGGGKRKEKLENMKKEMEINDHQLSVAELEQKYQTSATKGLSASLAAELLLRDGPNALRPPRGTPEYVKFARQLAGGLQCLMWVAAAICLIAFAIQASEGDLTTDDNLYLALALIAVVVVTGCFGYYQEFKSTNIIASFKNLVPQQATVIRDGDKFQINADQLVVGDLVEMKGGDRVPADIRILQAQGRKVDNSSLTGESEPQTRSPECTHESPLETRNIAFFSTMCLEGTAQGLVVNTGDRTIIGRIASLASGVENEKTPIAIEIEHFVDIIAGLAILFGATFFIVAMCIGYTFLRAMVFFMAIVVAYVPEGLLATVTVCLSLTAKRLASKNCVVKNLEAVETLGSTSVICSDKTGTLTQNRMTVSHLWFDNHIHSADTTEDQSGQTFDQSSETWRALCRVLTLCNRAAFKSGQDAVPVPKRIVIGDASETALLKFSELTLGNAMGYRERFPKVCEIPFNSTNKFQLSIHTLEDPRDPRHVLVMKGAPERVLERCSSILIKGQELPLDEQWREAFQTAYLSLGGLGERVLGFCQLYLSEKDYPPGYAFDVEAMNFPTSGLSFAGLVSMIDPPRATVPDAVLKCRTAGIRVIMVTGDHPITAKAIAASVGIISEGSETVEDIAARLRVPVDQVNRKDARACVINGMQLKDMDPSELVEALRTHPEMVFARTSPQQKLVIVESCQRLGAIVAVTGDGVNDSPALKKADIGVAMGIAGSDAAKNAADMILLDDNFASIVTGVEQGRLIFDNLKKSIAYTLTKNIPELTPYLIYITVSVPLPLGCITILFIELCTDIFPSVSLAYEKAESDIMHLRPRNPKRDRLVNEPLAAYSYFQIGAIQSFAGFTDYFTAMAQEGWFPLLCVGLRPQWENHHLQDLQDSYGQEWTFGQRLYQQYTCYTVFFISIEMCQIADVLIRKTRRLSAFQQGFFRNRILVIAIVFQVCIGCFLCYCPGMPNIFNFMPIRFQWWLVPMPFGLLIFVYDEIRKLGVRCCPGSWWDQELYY
T1 sequence (P18434 whole entry partner): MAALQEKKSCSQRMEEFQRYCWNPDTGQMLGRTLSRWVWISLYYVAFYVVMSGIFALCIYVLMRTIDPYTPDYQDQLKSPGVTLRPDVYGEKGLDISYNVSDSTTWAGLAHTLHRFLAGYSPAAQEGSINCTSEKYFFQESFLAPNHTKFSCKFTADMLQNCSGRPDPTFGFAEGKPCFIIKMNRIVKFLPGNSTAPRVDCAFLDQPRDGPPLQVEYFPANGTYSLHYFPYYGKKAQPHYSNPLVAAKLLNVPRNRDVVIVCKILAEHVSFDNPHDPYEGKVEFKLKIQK
human SSTR4, sequence (P31391 whole entry): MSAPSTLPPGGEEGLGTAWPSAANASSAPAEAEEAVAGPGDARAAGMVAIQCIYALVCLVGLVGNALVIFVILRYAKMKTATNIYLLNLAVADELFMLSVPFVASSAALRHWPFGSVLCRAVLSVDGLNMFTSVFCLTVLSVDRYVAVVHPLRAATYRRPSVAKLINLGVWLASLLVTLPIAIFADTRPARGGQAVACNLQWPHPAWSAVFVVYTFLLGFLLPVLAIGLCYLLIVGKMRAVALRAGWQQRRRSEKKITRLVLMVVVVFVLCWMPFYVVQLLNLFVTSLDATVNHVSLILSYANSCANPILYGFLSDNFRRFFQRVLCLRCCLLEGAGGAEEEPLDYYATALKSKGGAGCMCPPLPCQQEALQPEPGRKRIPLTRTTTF

What is called pEC50 is −log10 of the EC50, conventionally taken in molar units. A high value points to a small EC50. As usually defined, the inhibition is the change of the read-out against control, counted positive when it falls. Broadly, the bioavailability is the share of a dose that reaches the circulation, judged against a reference dose that is usually intravenous. Usually AUC(0-inf) stands for total exposure, with the tail of the curve extrapolated. A higher AUC(0-inf) goes with high exposure. One may read the pIC50 as the negative decadic logarithm of the IC50, by convention in mol/L. With `CNCc1cn(S(=O)(=O)c2ccc(OC)nc2)c(-c2ccccc2F)c1OC` [Example 1, 1-(5-(2-Fluorophenyl)-4-methoxy-1-((6-methoxypyridin-3-yl)sulfonyl)-1H-pyrrol-3-yl)-N-methylmethanamine], the “concentration in the stomach versus in vitro H+/K+ ATPase IC50” value in data set [1] is recorded as “exceeded ICH of the in vitro H^+/K^+ ATPase inhibition assay at all time points”. The compound also had a pEC50 at human SSTR4 of 6.11. In addition, the inhibition at 0.2 µM was not below 50% in data set [2] (setting [5]); 20 to 50% in data set [2] (setting [6]); not below 50% in data set [2] (setting [7]); less than 20% in data set [2] (setting [8]); not below 50% in data set [2] (setting [9]); less than 20% in data set [2] (setting [10]). Moreover, the inhibition at 0.2 µM in data set [2] (setting [11]) was not below 50%. The bioavailability in data set [3] came to 22%. Moreover, the area under the curve AUC(0-inf) in data set [3] is 253 ng·h/mL. The pIC50 in data set [4] is not below 6.52.

At human SSTR4, `CNCc1cn(S(=O)(=O)c2ccc(C)nc2)c(-c2ccc(F)cc2F)c1OC` [Example 3, 1-(5-(2,4-Difluorophenyl)-4-methoxy-1-((6-methylpyridin-3-yl)sulfonyl)-1H-pyrrol-3-yl)-N-methylmethanamine] gave a pEC50 of 5.41. The inhibition at 0.2 µM in data set [2] (setting [5]) was not below 50%; in data set [2] (setting [6]), 20 to 50%; in data set [2] (setting [7]), not below 50%; in data set [2] (setting [8]) it was less than 20%; in data set [2] (setting [9]), not below 50%; in data set [2] (setting [10]), less than 20%. For the same compound, in data set [2] (setting [11]), the inhibition at 0.2 µM is not below 50%. Besides, the bioavailability in data set [3] came out at 27.3%. This compound came in with an AUC(0-inf) in data set [3] of 275 ng·h/mL. In addition, in data set [4], the pIC50 was not below 6.52.
